This is an account of results in patent US20110070190A1 (Roche Palo Alto LLC, priority 2009, published 2011).

For the test, the target named is T1, HCV polymerase (NS5B570n-Con1) (Hepatitis C virus genotype 1b, UniProt Q9WMX2).
T1 construct: a 21 amino acid C-terminal deletion of full-length HCV polymerase; made in house; host or cells: E. coli BL21(DE3) pLysS, plasmid pET17b
Put plainly: HCV NS5B RNA polymerase activity (incorporation of radiolabeled nucleotide into acid insoluble RNA). It counts as biochemical, HCV Con1 strain. How it is done:
The enzymatic activity of HCV polymerase (NS5B570n-Con1) was measured as the incorporation of radiolabeled nucleotide monophosphates into acid insoluble RNA products. Unincorporated radiolabeled substrate was removed by filtration and scintillant was added to the washed and dried filter plate containing radiolabeled RNA product. The amount of RNA product generated by NS5B570n-Con1 at the end of the reaction was directly proportional to the amount of light emitted by the scintillant.
The HCV polymerase used in the enzymatic activity assay is a 21 amino acid C-terminal deletion of full-length HCV polymerase derived from HCV Con1 strain, genotype 1b (GenBank accession number AJ242654) (NS5B570n-Con1). The NS5B570n-Con1 was sub-cloned downstream to the T7 promoter of the plasmid expression construct pET17b and transformed into E. coli strain BL21(DE3) pLysS for protein expression. A single colony was used to start an innoculum for a 10 L culture in LB media supplemented with 100 μg/mL ampicillin at 37° C. Protein expression was induced by the addition of 0.25 mM isopropyl-β-D-thiogalactopyranoside (IPTG) when the optical density of the culture at […] was 0.8. Induction of protein expression was carried out at 30° C. for 16 h after which the cells were harvested by centrifugation. NS5B570n-Con1 was purified to homogeneity using a three-column purification protocol including subsequent column chromatography on Ni-NTA, SP-Sepharose HP and Superdex 75 resins.
Enzymatic reactions in the presence of cIRES RNA template (see paragraph [00213]) contained 20 nM cIRES RNA, 20 nM NS5B570n-Con1 enzyme, 0.5 μCi of tritiated UTP (Perkin Elmer catalog no. TRK-412; specific activity: 30 to 60 Ci/mmol;), 1 μM each ATP, CTP, and GTP, 40 mM Tris-HCl pH 8.0, 40 mM NaCl, 4 mM DTT (dithiothreitol), 4 mM MgCl2, 5 μl of compound serial diluted in DMSO, and nuclease-free water to a final reaction volume of 50 μl. Enzymatic reactions in the presence of poly A RNA template (see paragraph [00213]) contained 20 nM Poly A:oligo(rU)16 premixed (see section 0004), 20 nM NS5B570n-Con1 enzyme, 1 μCi of tritiated UTP (Perkin Elmer catalog no. TRK-412; specific activity: 30 to 60 Ci/mmol), 40 mM Tris-HCl pH 8.0, 40 mM NaCl, 4 mM DTT (dithiothreitol), 4 mM MgCl2, 5 μl of compound serial diluted in DMSO, and nuclease-free water to a final reaction volume of 50 μl. Reaction mixtures were assembled in 96-well filter plates (cat #MADVN0B, Millipore Co.) and incubated for 2 h at 30° C. Reactions were stopped by addition of 10% final (v/v) trichloroacetic acid and incubated for 40 min at 4° C. Reactions were filtered, washed with 8 reaction volumes of 10% (v/v) trichloroacetic acetic acid, 4 reaction volumes of 70% (v/v) ethanol, air dried, and 25 μl of scintillant (Microscint 20, Perkin-Elmer) was added to each reaction well.
Two RNA templates were used to assay compounds described herein. The cIRES RNA template was 377 nucleotide long and consisted of a partial complementary sequence (36 nucleotides) of the core protein, followed by 341 nucleotide of the complementary sequence of the internal ribosome entry site. The poly A RNA template (GE Amersham catalog number 27-4110) was a homopolymeric RNA pre-annealed to a oligo(rU)16 primer at a molar ratio of 3-to-1 (primer-template).
The amount of light emitted from the scintillant was converted to counts per minute (CPM) on a Topcount® plate reader (Perkin-Elmer, Energy Range: Low, Efficiency Mode: Normal, Count Time: 1 min, Background Subtract: none, Cross talk reduction: Off).
Data was analyzed in Excel® (Microsoft®) and ActivityBase® (Idbs®). The reaction in the absence of enzyme was used to determine the background signal, which was subtracted from the enzymatic reactions. Positive control reactions were performed in the absence of compound, from which the background corrected activity was set as 100% polymerase activity. All data was expressed as a percentage of the positive control. […]
By IC50 is commonly meant the concentration that inhibits the measured activity by half. Low readings indicate inhibition by little substance, high ones a need for much substance. For `O=C(Nc1ccccc1)c1ccc(-c2cc3c(s2)c(=O)ncn3Cc2ccc(Cl)cc2)cc1` [Compound I-47, 4-[1-(4-Chloro-benzyl)-4-oxo-1,4-dihydro-thieno[3,2-d]pyrimidin-6-yl]-N-phenyl-benzamide], the IC50 is approximately 40 nM.

Regarding `Cc1cc(N)n2nc(-c3ccc(-c4cc5c(s4)c(=O)ncn5C[C@H]4CC[C@@H](C)CC4)cc3Cl)cc2n1` [Compound I-4, 6-[4-(7-amino-5-methyl-pyrazolo[1,5-a]pyrimidin-2-yl)-3-chloro-phenyl]-1-(4-methyl-cyclohexylmethyl)-1H-thieno[3,2-d]pyrimidin-4-one], the IC50 is 10 nM.

`O=C(Nc1ccc(-c2cc3c(s2)c(=O)ncn3Cc2ccc(Cl)cc2)cc1)c1cnccn1` [Compound I-12, Pyrazine-2-carboxylic acid {4-[1-(4-chloro-benzyl)-4-oxo-1,4-dihydro-thieno[3,2-d]pyrimidin-6-yl]-phenyl}-amide] had an IC50 of 32 nM.

`O=C(Nc1ccc(-c2cc3c(s2)c(=O)ncn3Cc2ccc(Cl)cc2)cc1)c1ccccn1` [Compound I-39, Pyridine-2-carboxylic acid {4-[1-(4-chloro-benzyl)-4-oxo-1,4-dihydro-thieno[3,2-d]pyrimidin-6-yl]-phenyl}-amide] showed an IC50 of 5 nM.

`O=C(Nc1ccc(-c2cc3c(s2)c(=O)ncn3Cc2ccc(Cl)cc2)cc1)N1CCCC1` [Compound I-54, Pyrrolidine-1-carboxylic acid {4-[1-(4-chloro-benzyl)-4-oxo-1,4-dihydro-thieno[3,2-d]pyrimidin-6-yl]-phenyl}-amide] returned an IC50 of 76 nM.

`O=C(Nc1ccc(-c2cc3c(s2)c(=O)ncn3Cc2ccc(Cl)cc2)cc1F)c1ccccc1` [Compound I-14, N-{4-[1-(4-Chloro-benzyl)-4-oxo-1,4-dihydro-thieno[3,2-d]pyrimidin-6-yl]-2-fluoro-phenyl}-benzamide] gave an IC50 of 69 nM.

Consider `Nc1nccc(C(=O)Nc2ccc(-c3cc4c(s3)c(=O)ncn4Cc3ccc(Cl)cc3)cc2)n1` [Compound I-8, 2-Amino-pyrimidine-4-carboxylic acid {4-[1-(4-chloro-benzyl)-4-oxo-1,4-dihydro-thieno[3,2-d]pyrimidin-6-yl]-phenyl}-amide], for which the midpoint of inhibition, the IC50, lay at 26 nM.

Molecule `Cc1cc(N)n2nc(-c3ccc(-c4cc5c(s4)c(=O)ncn5C[C@H]4CC[C@H](C)CC4)cn3)cc2n1` [Compound I-43, 6-[6-(7-Amino-5-methyl-pyrazolo[1,5-a]pyrimidin-2-yl)-pyridin-3-yl]-1-(4-methyl-cyclohexylmethyl)-1H-thieno[3,2-d]pyrimidin-4-one] came in with an IC50 of 428 nM.

`Cc1cc(N)n2nc(-c3ccc(-c4cc5c(s4)c(=O)ncn5Cc4ccc(Cl)cc4)cn3)cc2n1` [Compound I-42, 6-[6-(7-Amino-5-methyl-pyrazolo[1,5-a]pyrimidin-2-yl)-pyridin-3-yl]-1-(4-chloro-benzyl)-1H-thieno[3,2-d]pyrimidin-4-one] yielded an IC50 of 19 nM.

`O=c1ncn(Cc2ccc(Cl)cc2)c2cc(-c3ccc(OCc4ccc(F)cc4)cc3)sc12` [Compound I-5, 1-(4-chloro-benzyl)-6-[4-(4-fluoro-benzyloxy)-phenyl]-1H-thieno[3,2-d]pyrimidin-4-one]: the IC50 came to 13 nM.

`O=C(Nc1ccc(-c2cc3c(s2)c(=O)ncn3Cc2ccc(Cl)cc2)cc1)c1ccno1` [Compound I-32, Isoxazole-5-carboxylic acid {4-[1-(4-chloro-benzyl)-4-oxo-1,4-dihydro-thieno[3,2-d]pyrimidin-6-yl]-phenyl}-amide] had an IC50 of 308 nM.

With `Cc1ccc(Cn2cnc(=O)c3sc(-c4ccc(-c5ccccc5)cc4)cc32)cc1` [Compound I-13], the IC50 is 45 nM.

Consider `Cc1ccc(Cn2cnc(=O)c3sc(-c4ccc(CO)cc4)cc32)cc1` [Compound I-53, 6-(4-Hydroxymethyl-phenyl)-1-(4-methyl-benzyl)-1H-thieno[3,2-d]pyrimidin-4-one], for which half-maximal inhibition (IC50) required 560 nM.

Molecule `O=C(Nc1ccc(-c2cc3c(s2)c(=O)ncn3Cc2ccc(Cl)cc2)cc1Cl)c1ccccn1` [Compound I-1, Pyridine-2-carboxylic acid {2-chloro-4-[1-(4-chloro-benzyl)-4-oxo-1,4-dihydro-thieno[3,2-d]pyrimidin-6-yl]-phenyl}-amide] returned an IC50 of 2 nM.

`Nc1nccc(-c2ccc(-c3cc4c(s3)c(=O)ncn4Cc3ccc(Cl)cc3)cc2)n1` [Compound I-10, 6-[4-(2-Amino-pyrimidin-4-yl)-phenyl]-1-(4-chloro-benzyl)-1H-thieno[3,2-d]pyrimidin-4-one]: the IC50 was 29 nM.

For `Cc1ncoc1C(=O)Nc1ccc(-c2cc3c(s2)c(=O)ncn3Cc2ccc(Cl)cc2)cc1` [Compound I-18, 4-Methyl-oxazole-5-carboxylic acid {4-[1-(4-chloro-benzyl)-4-oxo-1,4-dihydro-thieno[3,2-d]pyrimidin-6-yl]-phenyl}-amide], the IC50 stood at 77 nM.

Consider `O=c1ncn(Cc2ccc(Cl)cc2)c2cc(-c3ccc(SCc4ccccc4)cc3)sc12` [Compound I-20, 6-(4-Benzylsulfanyl-phenyl)-1-(4-chloro-benzyl)-1H-thieno[3,2-d]pyrimidin-4-one], for which the IC50 stood at 104 nM.

`O=C(CCCO)Nc1ccc(-c2cc3c(s2)c(=O)ncn3Cc2ccc(Cl)cc2)cc1Cl` [Compound I-30, N-{2-Chloro-4-[1-(4-chloro-benzyl)-4-oxo-1,4-dihydro-thieno[3,2-d]pyrimidin-6-yl]-phenyl}-4-hydroxy-butyramide] came in with an IC50 of 279 nM.

`COc1ccc(COc2ccc(-c3cc4c(s3)c(=O)ncn4Cc3ccc(Cl)cc3)cc2)cc1` [Compound I-11, 1-(4-chloro-benzyl)-6-[4-(4-methoxy-benzyloxy)-phenyl]-1H-thieno[3,2-d]pyrimidin-4-one] displayed an IC50 of 32 nM.

For `O=C(Nc1ccc(-c2cc3c(s2)c(=O)ncn3Cc2ccc(Cl)cc2)cn1)c1ccccn1` [Compound I-41, Pyridine-2-carboxylic acid {5-[1-(4-chloro-benzyl)-4-oxo-1,4-dihydro-thieno[3,2-d]pyrimidin-6-yl]-pyridin-2-yl}-amide], half-maximal inhibition (IC50) required 62 nM.

Regarding `Cc1ccc(Cn2cnc(=O)c3sc(-c4ccc(-c5cc6ncccc6o5)cc4)cc32)cc1` [Compound I-19, 6-(4-Furo[3,2-b]pyridin-2-yl-phenyl)-1-(4-methyl-benzyl)-1H-thieno[3,2-d]pyrimidin-4-one], half-maximal inhibition (IC50) was put at 82 nM.

Molecule `Cc1ccc(Cn2cnc(=O)c3sc(-c4ccc(C(=O)O)cc4)cc32)cc1` [Compound I-36] displayed an IC50 of 535 nM.

Molecule `COc1cccc(C(=O)Nc2ccc(-c3cc4c(s3)c(=O)ncn4Cc3ccc(Cl)cc3)cc2Cl)c1` [Compound I-26] showed an IC50 of 162 nM.

With `O=C(Nc1ccc(-c2cc3c(s2)c(=O)ncn3Cc2ccc(Cl)cc2)nc1)c1ccccn1` [Compound I-40, Pyridine-2-carboxylic acid {6-[1-(4-chloro-benzyl)-4-oxo-1,4-dihydro-thieno[3,2-d]pyrimidin-6-yl]-pyridin-3-yl}-amide], half-maximal inhibition (IC50) required 131 nM.

In turn, `O=c1ncn(Cc2ccc(Cl)cc2)c2cc(-c3ccc(SCc4ccccn4)cc3)sc12` [Compound I-48, 1-(4-Chloro-benzyl)-6-[4-(pyridin-2-ylmethylsulfanyl)-phenyl]-1H-thieno[3,2-d]pyrimidin-4-one] registered an IC50 of 163 nM.
